Molecules are shown by their SMILES.

In general, IC50 refers to the concentration that gives 50% inhibition. Read a high IC50 as a need for much substance.

The target of this experiment is H1047R PIK3CA enzyme (Homo sapiens, UniProt P42336, H1047R). Briefly: ADP-Glo Biochemical PIK3CA Kinase Assay. (In general: ADP-Glo first removes unused ATP, then detects ADP through luciferase.)
H1047R PIK3CA enzyme, sequence (P42336 whole entry H1047R): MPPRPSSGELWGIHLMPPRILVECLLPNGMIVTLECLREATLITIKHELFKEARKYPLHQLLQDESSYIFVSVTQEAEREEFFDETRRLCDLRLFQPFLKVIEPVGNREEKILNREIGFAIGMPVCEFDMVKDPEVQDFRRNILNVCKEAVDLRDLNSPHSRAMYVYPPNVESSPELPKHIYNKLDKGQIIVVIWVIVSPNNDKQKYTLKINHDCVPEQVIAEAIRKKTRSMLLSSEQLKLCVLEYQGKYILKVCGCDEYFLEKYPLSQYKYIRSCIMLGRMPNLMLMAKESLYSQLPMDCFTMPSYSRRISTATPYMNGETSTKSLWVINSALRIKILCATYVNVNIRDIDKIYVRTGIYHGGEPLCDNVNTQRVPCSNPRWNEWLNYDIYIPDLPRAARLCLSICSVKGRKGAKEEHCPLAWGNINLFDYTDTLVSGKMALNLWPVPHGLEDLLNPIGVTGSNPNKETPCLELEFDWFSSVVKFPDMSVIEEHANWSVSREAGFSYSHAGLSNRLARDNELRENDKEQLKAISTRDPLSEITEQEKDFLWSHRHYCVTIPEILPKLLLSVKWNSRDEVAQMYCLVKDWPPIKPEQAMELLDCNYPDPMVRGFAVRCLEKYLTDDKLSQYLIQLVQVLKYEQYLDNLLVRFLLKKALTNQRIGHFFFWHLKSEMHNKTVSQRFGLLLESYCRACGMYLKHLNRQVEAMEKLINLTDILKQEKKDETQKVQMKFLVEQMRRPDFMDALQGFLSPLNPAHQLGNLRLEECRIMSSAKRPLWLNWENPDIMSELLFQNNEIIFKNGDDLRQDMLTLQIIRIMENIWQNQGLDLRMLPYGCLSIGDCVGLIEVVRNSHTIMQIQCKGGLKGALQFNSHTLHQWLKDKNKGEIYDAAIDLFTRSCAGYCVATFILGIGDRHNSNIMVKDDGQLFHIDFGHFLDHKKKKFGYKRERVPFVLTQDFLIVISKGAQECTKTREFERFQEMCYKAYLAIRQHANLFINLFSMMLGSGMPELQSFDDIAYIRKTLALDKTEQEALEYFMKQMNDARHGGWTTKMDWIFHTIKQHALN
H1047R PIK3CA enzyme, sequence (P27986 whole entry partner): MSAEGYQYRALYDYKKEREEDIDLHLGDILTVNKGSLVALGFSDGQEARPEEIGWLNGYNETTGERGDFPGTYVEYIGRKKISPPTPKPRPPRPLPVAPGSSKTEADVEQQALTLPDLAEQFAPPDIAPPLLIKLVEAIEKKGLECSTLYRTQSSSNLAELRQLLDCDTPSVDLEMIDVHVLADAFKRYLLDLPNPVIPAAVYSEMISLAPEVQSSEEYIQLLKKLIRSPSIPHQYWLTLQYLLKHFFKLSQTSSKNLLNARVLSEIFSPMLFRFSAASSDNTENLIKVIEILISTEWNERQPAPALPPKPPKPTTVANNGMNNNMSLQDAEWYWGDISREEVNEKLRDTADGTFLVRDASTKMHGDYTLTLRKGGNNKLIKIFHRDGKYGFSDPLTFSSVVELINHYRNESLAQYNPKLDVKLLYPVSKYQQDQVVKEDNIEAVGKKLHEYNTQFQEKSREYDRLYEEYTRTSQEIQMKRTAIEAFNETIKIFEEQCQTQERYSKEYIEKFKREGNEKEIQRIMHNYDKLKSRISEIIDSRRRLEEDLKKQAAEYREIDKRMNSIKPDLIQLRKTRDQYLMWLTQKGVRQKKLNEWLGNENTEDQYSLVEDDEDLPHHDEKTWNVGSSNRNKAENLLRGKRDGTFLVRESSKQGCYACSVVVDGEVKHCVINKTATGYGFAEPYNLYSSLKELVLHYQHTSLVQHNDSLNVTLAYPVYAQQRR
Consider `Cc1ccccc1[C@H]1NC(=O)c2cccc(NC(=O)c3csc4ccccc34)c21` [Compound I-4], for which the IC50 fell in the range of 500 to 1000 nM.

Compound `O=C1N[C@H](c2cc(F)ccc2Cl)c2c(NC(=O)N3C[C@@](O)(C(F)(F)F)c4cc(F)ccc43)cccc21` (single isomer, unassigned) [Compound I-2514] registered an IC50 of 10000 to 100000 nM.

As for `O=C(Nc1cc(C#CC2CC(F)(F)C2)cc2c1C(c1cc(F)ccc1Cl)NC2=O)c1cc(F)cc(C(F)(F)F)c1` (centres unmarked) [Compound I-1194], the IC50 was in the range of 100 to 500 nM.

`O=C(Nc1cc(Br)cc2c1C(c1cc(F)ccc1Cl)NC2=O)c1nc2ccccc2[nH]1` (centres unmarked) [Compound I-1617]: the IC50 lay within 1000 to 10000 nM.

For `O=C(Nc1cc(Br)cc2c1C(c1cc(F)ccc1Cl)NC2=O)c1cc(Cl)ccc1C(F)F` (centres unmarked) [Compound I-911], the half-inhibitory concentration (IC50) fell in the range of 1000 to 10000 nM.

As for `CC(C)(O)Cc1cc(NC(=O)c2cc(F)cc(C(F)(F)F)c2)c2c(c1)C(=O)N[C@@H]2c1cc(F)ccc1Cl` [Compound I-622], the IC50 was in the range of 100 to 500 nM.

Turning to `NCc1ncc(NC(=O)c2cc(F)cc(C(F)(F)F)c2)c2c1C(=O)NC2c1cc(F)ccc1Cl` (centres unmarked) [Compound I-480], the IC50 was 500 to 1000 nM.

`CN(C)c1cc(NC(=O)N2C[C@@](O)(C(F)(F)F)c3cc(F)ccc32)c2c(n1)C(=O)N[C@H]2c1cc(F)ccc1Cl` (single isomer, unassigned) [Compound I-2691] showed a concentration for half-maximal inhibition (IC50) of 1000 to 10000 nM.

`O=C(Nc1cccc2c1C(c1cc(O)ccc1Cl)NC2=O)c1cc(F)cc(C(F)(F)F)c1` (centres unmarked) [Compound I-428] gave an IC50 of 1000 to 10000 nM.

Take `O=C(Nc1cc(-c2ccc3ncnn3c2)nc2c1C(C1CCCC1)NC2=O)c1cc(F)cc(C(F)(F)F)c1` (centres unmarked) [Compound I-1654]: the IC50 was in the range of 10000 to 100000 nM.

As for `O=C1NC(c2cc(F)ccc2Cl)c2c(NC(=O)N3CCc4cc(F)ccc43)cc(Br)cc21` (centres unmarked) [Compound I-1270], the IC50 was at most 100 nM.

In turn, `O=C1NC(c2cc(F)ccc2Cl)c2c(NC(=O)C3CCCC(C(F)(F)F)N3)cc(-c3ccc4ncnn4c3)cc21` (mixture of isomers) [Compound I-1992] registered an IC50 of 1000 to 10000 nM.

On to `CC(C)(O)c1cc(NC(=O)N2C[C@H](O)c3ccccc32)c2c(c1)C(=O)N[C@@H]2c1cc(F)ccc1Cl` (single isomer, unassigned) [Compound I-2121], for which the IC50 fell in the range of 1000 to 10000 nM.

`O=C(Nc1cc(-c2ccc3ocnc3n2)cc2c1C(c1cc(F)ccc1Cl)NC2=O)c1cc(F)cc(C(F)(F)F)c1` (centres unmarked) [Compound I-1553] displayed an IC50 of at most 100 nM.

`Cc1ccccc1C1NC(=O)c2cccc(NC(=O)c3n[nH]c4ccccc34)c21` (centres unmarked) [Compound I-24] registered an IC50 of 10000 to 100000 nM.

Turning to `O=C1N[C@@H](c2cc(F)ccc2Cl)c2c(NC(=O)N3C[C@@](O)(C(F)(F)F)c4cc(F)ccc43)cc(C(F)F)cc21` (single isomer, unassigned) [Compound I-2578], the half-maximal inhibitory concentration (IC50) was 1000 to 10000 nM.

As to `O=C(Nc1cc(Br)cc2c1C(c1cc(F)ccc1Cl)NC2=O)c1cccc2c1OCCC2` (centres unmarked) [Compound I-601], the IC50 lay in the range of 10000 to 100000 nM.

Regarding `O=C1NC[C@@H](c2cc(NC(=O)c3cc(F)cc(C(F)(F)F)c3)c3c(c2)C(=O)N[C@H]3c2cc(F)ccc2Cl)O1` (single isomer, unassigned) [Compound I-1562], the IC50 was at most 100 nM.

`Nc1cc(NC(=O)N2C[C@@H](O)c3ccccc32)c2c(c1)C(=O)N[C@@H]2c1cc(F)ccc1Cl` (single isomer, unassigned) [Compound I-2131]: the IC50 lay within 1000 to 10000 nM.

Consider `N#Cc1cccc2c1CCN2C(=O)Nc1cccc2c1C(c1cc(F)ccc1Cl)NC2=O` (centres unmarked) [Compound I-2425], for which the IC50 is 10000 to 100000 nM.

On to `O=C(Nc1cc(Br)cc2c1C(c1cc(F)ccc1Cl)NC2=O)c1csc(Cl)c1Cl` (centres unmarked) [Compound I-1417], for which the IC50 lay in the range of 1000 to 10000 nM.

Regarding `COc1cc(-c2ccc3ncnn3c2)cc2c1C(c1cc(F)ccc1Cl)NC2=O` (centres unmarked) [Compound I-1973], the IC50 lay in the range of 10000 to 100000 nM.

Compound `O=C(Nc1cc(Oc2ncccn2)cc2c1C(c1cc(F)ccc1Cl)NC2=O)c1cc(F)cc(C(F)(F)F)c1` (centres unmarked) [Compound I-1202] registered a half-inhibitory concentration (IC50) of 100 to 500 nM.

As for `O=C1N[C@@H](c2cc(F)ccc2Cl)c2c(NC(=O)N3C[C@@](O)(C(F)(F)F)c4cc(F)ccc43)cc(N3CCOC3=O)cc21` (single isomer, unassigned) [Compound I-2675], the IC50 lay in the range of 1000 to 10000 nM.

Turning to `O=C1NC(c2cc(F)ccc2Cl)c2c(NC(=O)c3cc(F)cc4cc[nH]c34)cc(Br)cc21` (centres unmarked) [Compound I-711], the IC50 is at most 100 nM.

As for `O=C1NC(c2cc(F)ccc2Cl)c2c(NC(=O)c3cc(F)cc4oc(=O)[nH]c34)cc(Br)cc21` (centres unmarked) [Compound I-1319], the IC50 was in the range of 1000 to 10000 nM.

Turning to `O=C(Nc1cc(Br)cc2c1C(c1cc(F)ccc1Cl)NC2=O)c1ccc2nncn2c1` (centres unmarked) [Compound I-637], the IC50 lay within 10000 to 100000 nM.

Compound `Cc1ccccc1C1NC(=O)c2cccc(NC(=O)c3ccn4ccccc34)c21` (centres unmarked) [Compound I-61] gave an IC50 of 100 to 500 nM.

Take `O=C1N[C@H](c2cc(F)ccc2Cl)c2c(NC(=O)N3C[C@H](O)c4cc(F)ccc43)cc(-n3ccccc3=O)cc21` (single isomer, unassigned) [Compound I-2353]: the IC50 lay within 1000 to 10000 nM.

Compound `N#Cc1cc(NC(=O)N2C[C@@H](O)c3cc(F)ccc32)c2c(c1)C(=O)N[C@@H]2c1cc(F)ccc1Cl` (single isomer, unassigned) [Compound I-2492] came in with an IC50 of 500 to 1000 nM.

For the compound `O=C1NC(c2cc(F)ccc2Cl)c2c(NC(=O)C34CC5CC(F)(CC(F)(C5)C3)C4)cccc21` (centres unmarked) [Compound I-1180], the IC50 is 100 to 500 nM.

For `CS(=O)(=O)Cc1cc(NC(=O)c2cc(F)cc(C(F)(F)F)c2)c2c(c1)C(=O)NC2c1cc(F)ccc1Cl` (centres unmarked) [Compound I-310], the IC50 is at most 100 nM.

The compound `O=C(Nc1cc(-n2cnc3ncccc32)cc2c1C(c1cc(F)ccc1Cl)NC2=O)c1cc(F)cc(C(F)(F)F)c1` (centres unmarked) [Compound I-1233] gave an IC50 of at most 100 nM.

Compound `CNC(=O)c1cc(-c2ccc3ncnn3c2)cc2c1C(c1cc(F)ccc1Cl)NC2=O` (centres unmarked) [Compound I-1846] displayed an IC50 of 10000 to 100000 nM.

Consider `O=C1NC(c2cc(F)ccc2Cl)c2c(NC3CCS(=O)(=O)CC3)cc(-c3ccc4ncnn4c3)cc21` (centres unmarked) [Compound I-2010], for which the IC50 was 10000 to 100000 nM.

For `O=C1N[C@H](c2cc(F)ccc2Cl)c2c(N[C@H]3CCOc4ccccc43)cc(-c3cnn(C(F)F)c3)nc21` (single isomer, unassigned) [Compound I-2159], the IC50 lay within 1000 to 10000 nM.

Compound `N#Cc1ccc(-c2cc(NC(=O)c3cc(F)cc(C(F)(F)F)c3)c3c(c2)C(=O)N[C@H]3c2cc(F)ccc2Cl)cn1` [Compound I-996] had an IC50 of 500 to 1000 nM.

The compound `O=C(Nc1cc(OC[C@@H]2CCCN2)cc2c1C(c1cc(F)ccc1Cl)NC2=O)c1cc(F)cc(C(F)(F)F)c1` (single isomer, unassigned) [Compound I-1468] had a half-maximal inhibitory concentration (IC50) of 100 to 500 nM.

As to `Cc1ccccc1C1NC(=O)c2cc(C#N)cc(NC(=O)c3nsc4ccccc34)c21` (centres unmarked) [Compound I-116], the IC50 was at most 100 nM.

In the case of `O=C1NC(c2cc(F)ccc2Cl)c2c(NC(=O)N3CCCC34CCCC4)cc(Br)cc21` (centres unmarked) [Compound I-2424], the IC50 was in the range of 500 to 1000 nM.

Consider `O=C1NC(c2cc(F)ccc2C(F)F)c2c(NC(=O)c3nsc4ccccc34)cccc21` (centres unmarked) [Compound I-137], for which the IC50 is at most 100 nM.

`O=C1NC(c2cc(F)ccc2Cl)c2c(Cn3ccc4ccccc4c3=O)cc(-c3ccc4ncnn4c3)cc21` (centres unmarked) [Compound I-2026] showed an IC50 of 10000 to 100000 nM.

`O=C(Nc1cccc2c1[C@H]([C@@H]1CCCCCN1)NC2=O)c1cc(F)cc(C(F)(F)F)c1` (single isomer, unassigned) [Compound I-2319]: the IC50 was in the range of 10000 to 100000 nM.

On to `COc1cc(C(=O)Nc2cc(Br)cc3c2C(c2cc(F)ccc2C(F)F)NC3=O)cc(F)c1F` (centres unmarked) [Compound I-436], for which the IC50 is 100 to 500 nM.

In turn, `O=C(Nc1cc(-c2n[nH]c3ccncc23)cc2c1C(c1cc(F)ccc1Cl)NC2=O)c1cc(F)cc(C(F)(F)F)c1` (centres unmarked) [Compound I-938] returned an IC50 of 100 to 500 nM.

`CNc1cc(NC(=O)N2C[C@@](O)(C(F)(F)F)c3cc(F)ccc32)c2c(c1C#N)C(=O)N[C@H]2c1cc(F)ccc1Cl` (single isomer, unassigned) [Compound I-2606] showed an IC50 of 1000 to 10000 nM.

In turn, `CC(=O)N1CCC(C(=O)Nc2cc(-c3ccc4ncnn4c3)cc3c2C(c2cc(F)ccc2Cl)NC3=O)CC1` (centres unmarked) [Compound I-1744] displayed an IC50 of 10000 to 100000 nM.

`O=C1N[C@H](c2cc(F)ccc2Cl)c2c(NC(=O)[C@@H]3CCC[C@@H](OC(F)(F)F)C3)cccc21` (single isomer, unassigned) [Compound I-2215] had an IC50 of 10000 to 100000 nM.

`O=C(Nc1cccc2c1[C@H](NC1CCCC1)NC2=O)c1cc(F)cc(C(F)(F)F)c1` (single isomer, unassigned) [Compound I-2250] came in with an IC50 of 10000 to 100000 nM.

The compound `N#Cc1cc2nccn2cc1-c1cc(NC(=O)c2cc(F)cc(C(F)(F)F)c2)c2c(c1)C(=O)NC2c1cc(F)ccc1Cl` (centres unmarked) [Compound I-1437] had an IC50 of at most 100 nM.

Take `O=C1NC(O)(c2cccc(F)c2F)c2c(NC(=O)c3csc4ccccc34)ccnc21` (centres unmarked) [Compound I-31]: the IC50 lay in the range of 10000 to 100000 nM.

As for `COc1cnccc1-c1cc(NC(=O)c2cc(F)cc(C(F)(F)F)c2)c2c(c1)C(=O)NC2c1cc(F)ccc1Cl` (centres unmarked) [Compound I-1219], the IC50 is at most 100 nM.

The compound `Cc1ccccc1C1NC(=O)c2cccc(NC(=O)c3cc(F)n4ccccc34)c21` (centres unmarked) [Compound I-316] showed an IC50 of 500 to 1000 nM.

The compound `CCCCc1ccc(Cl)c(C2NC(=O)c3cccc(NC(=O)c4cc(O)cc(C(F)(F)F)c4)c32)c1` (centres unmarked) [Compound I-2391] showed an IC50 of 1000 to 10000 nM.

Regarding `Nc1cnc2ccc(-c3cc(NC(=O)c4cc(F)cc(C(F)(F)F)c4)c4c(c3)C(=O)NC4c3cc(F)ccc3Cl)cn12` (centres unmarked) [Compound I-1409], the IC50 is at most 100 nM.

As for `CC(C)C1CCCN1C(=O)Nc1cccc2c1C(c1cc(F)ccc1Cl)NC2=O` (mixture of isomers) [Compound I-2396], the half-inhibitory concentration (IC50) lay in the range of 1000 to 10000 nM.

For `CC(C)(O)c1cc(NC(=O)c2nsc3ccccc23)c2c(c1)C(=O)NC2c1cc(F)ccc1Cl` (centres unmarked) [Compound I-136], the IC50 is at most 100 nM.

Take `O=C(Nc1cccc2c1C(CN1CCCC1)NC2=O)c1cc(F)cc(C(F)(F)F)c1` (centres unmarked) [Compound I-1761]: the IC50 fell in the range of 10000 to 100000 nM.

`COC(=O)c1cc(Nc2cccc3c2C(c2cc(F)ccc2Cl)NC3=O)ncc1C(F)(F)F` (centres unmarked) [Compound I-1238] yielded an IC50 of 1000 to 10000 nM.
